Patent US11339165B2, “Pyrazolopyrimidines having activity against the respiratory syncytial virus (RSV)” (priority 2017, dated 2022)

Legend:
[1] = system: rgRSV224 virus; assay: Antiviral activity: rgRSV224 (GFP) replication in HeLa cells; format: cell-based, respiratory syncytial virus (RSV); conditions: human respiratory syncytial virus, HeLa, 72 h, read-out: RSV HELA EC50 (μM), rgRSV224 virus (MOI=1), HeLa cells, GFP expression three days post-virus exposure
[2] = in vitro; conditions: human, TOX HELA CC50 (μM)

Structure (SMILES)	EC50 [1] [µM]	CC50 at 3 days [2] [µM]
C[C@@H]1c2ccccc2CCN1C(=O)c1cc(C2CC2)n2nc(-c3ccc(N4CCC(S(=O)(=O)N(C)C)C4)cc3F)cc2n1 (stereo partly drawn) [Compound 22, 1-(4-{7-Cyclopropyl-5-[(1R)-1-methyl-1,2,3,4-tetrahydroisoquinoline-2-carbonyl]-pyrazolo[1,5-a]pyrimidin-2-yl}-3-fluorophenyl)-N,N-dimethylpyrrolidine-3-sulfonamide]	0.145	> 100
C[C@@H]1c2ccccc2CCN1C(=O)c1cc(C2CC2)n2nc(-c3ccc(N4CC[C@H](C(=O)N(C)C)C4)cc3F)cc2n1 [Compound 38, (3S)-1-(4-{7-Cyclopropyl-5-[(1R)-1-methyl-1,2,3,4-tetrahydroisoquinoline-2-carbonyl]-pyrazolo[1,5-a]pyrimidin-2-yl}-3-fluorophenyl)-N,N-dimethylpyrrolidine-3-carboxamide]	0.043	> 100
C[C@@H]1c2ccccc2CCN1C(=O)c1cc(C2CC2)n2nc(-c3ccc(N4CC[C@H](C(=O)NC#N)C4)cc3F)cc2n1 [Compound 39, (3S)—N-Cyano-1-(4-{7-cyclopropyl-5-[(1R)-1-methyl-1,2,3,4-tetrahydroisoquinoline-2-carbonyl]pyrazolo[1,5-a]pyrimidin-2-yl}-3-fluorophenyl)pyrrolidine-3-carboxamide]	0.291	53.1
C[C@@H]1c2ccccc2CCN1C(=O)c1cc(C2CC2)n2nc(-c3ccc(N4CC[C@H](C(=O)NS(C)(=O)=O)C4)cc3F)cc2n1 [Compound 40, (3S)-1-(4-{7-Cyclopropyl-5-[(1R)-1-methyl-1,2,3,4-tetrahydroisoquinoline-2-carbonyl]-pyrazolo[1,5-a]pyrimidin-2-yl}-3-fluorophenyl)-N-methanesulfonylpyrrolidine-3-carboxamide]	0.061	52.3
CNC(=O)[C@H]1CCN(c2ccc(-c3cc4nc(C(=O)N5CCc6ccccc6[C@H]5C)cc(C5CC5)n4n3)c(F)n2)C1 [Compound 50, (3S)-1-(5-{7-Cyclopropyl-5-[(1R)-1-methyl-1,2,3,4-tetrahydroisoquinoline-2-carbonyl]-pyrazolo[1,5-a]pyrimidin-2-yl}-6-fluoropyridin-2-yl)-N-methylpyrrolidine-3-carboxamide]	0.031	35.1
C[C@@H]1c2ccccc2CCN1C(=O)c1cc(C2CC2)n2nc(-c3ccc(N4CC[C@H](C(=O)NS(C)(=O)=O)C4)nc3F)cc2n1 [Compound 51, (3S)-1-(5-{7-Cyclopropyl-5-[(1R)-1-methyl-1,2,3,4-tetrahydroisoquinoline-2-carbonyl]-pyrazolo[1,5-a]pyrimidin-2-yl}-6-fluoropyridin-2-yl)-N-methanesulfonylpyrrolidine-3-carboxamide]	0.131	67.9
C[C@@H]1c2ccccc2CCN1C(=O)c1cc(-c2ccccc2)n2nc(-c3ccc(N4CC[C@H](C(N)=O)C4)cc3F)cc2n1 [Compound 56, (3S)-1-(3-Fluoro-4-{5-[(1R)-1-methyl-1,2,3,4-tetrahydroisoquinoline-2-carbonyl]-7-phenylpyrazolo[1,5-a]pyrimidin-2-yl}phenyl)pyrrolidine-3-carboxamide]	0.032	58.9
Cc1ccc(-c2cc(C(=O)N3CCc4ccccc4[C@H]3C)nc3cc(-c4ccc(N5CC[C@H](C(N)=O)C5)cc4F)nn23)cc1 [Compound 58, (3S)-1-(3-Fluoro-4-{5-[(1R)-1-methyl-1,2,3,4-tetrahydroisoquinoline-2-carbonyl]-7-(4-methylphenyl)pyrazolo[1,5-a]pyrimidin-2-yl}phenyl)pyrrolidine-3-carboxamide]	0.036	> 100
C[C@@H]1c2ccccc2CCN1C(=O)c1cc(-c2ccc(F)cc2)n2nc(-c3ccc(N4CC[C@H](C(N)=O)C4)cc3F)cc2n1 [Compound 60, (3S)-1-{3-Fluoro-4-[7-(4-fluorophenyl)-5-[(1R)-1-methyl-1,2,3,4-tetrahydroisoquinoline-2-carbonyl]pyrazolo[1,5-a]pyrimidin-2-yl]phenyl}pyrrolidine-3-carboxamide]	0.029	41.3
C[C@@H]1c2ccccc2CCN1C(=O)c1cc(-c2ccc(C(F)(F)F)cc2)n2nc(-c3ccc(N4CC[C@H](C(N)=O)C4)cc3F)cc2n1 [Compound 61, (3S)-1-(3-Fluoro-4-{5-[(1R)-1-methyl-1,2,3,4-tetrahydroisoquinoline-2-carbonyl]-7-[4-(trifluoromethyl)phenyl]pyrazolo[1,5-a]pyrimidin-2-yl}phenyl)pyrrolidine-3-carboxamide]	0.193	> 100
C[C@@H]1c2ccccc2CCN1C(=O)c1cc(-c2ccncc2)n2nc(-c3ccc(N4CC[C@H](C(N)=O)C4)cc3F)cc2n1 [Compound 63, (3S)-1-(3-Fluoro-4-{5-[(1R)-1-methyl-1,2,3,4-tetrahydroisoquinoline-2-carbonyl]-7-(pyridin-4-yl)pyrazolo[1,5-a]pyrimidin-2-yl}phenyl)pyrrolidine-3-carboxamide]	0.011	27.2
C[C@@H]1c2ccccc2CCN1C(=O)c1cc(-c2cncnc2)n2nc(-c3ccc(N4CC[C@H](C(N)=O)C4)cc3F)cc2n1 [Compound 64, (3S)-1-(3-Fluoro-4-{5-[(1R)-1-methyl-1,2,3,4-tetrahydroisoquinoline-2-carbonyl]-7-(pyrimidin-5-yl)pyrazolo[1,5-a]pyrimidin-2-yl}phenyl)pyrrolidine-3-carboxamide]	0.029	8.9
C[C@@H]1c2ccccc2CCN1C(=O)c1cc(C2CC2)n2nc(-c3ccc(N4CCC(C(N)=O)CC4)cc3F)cc2n1 [Compound 68, 1-(4-{7-Cyclopropyl-5-[(1R)-1-methyl-1,2,3,4-tetrahydroisoquinoline-2-carbonyl]-pyrazolo[1,5-a]pyrimidin-2-yl}-3-fluorophenyl)piperidine-4-carboxamide]	0.058	26.6
C[C@@H]1c2ccccc2CCN1C(=O)c1cc(C2CC2)n2nc(-c3ccc(N4CCCC(C(N)=O)C4)cc3F)cc2n1 (stereo partly drawn) [Compound 69, 1-(4-{7-Cyclopropyl-5-[(1R)-1-methyl-1,2,3,4-tetrahydroisoquinoline-2-carbonyl]-pyrazolo[1,5-a]pyrimidin-2-yl}-3-fluorophenyl)piperidine-3-carboxamide]	0.059	33.2
C[C@@H]1c2ccccc2CCN1C(=O)c1cc(C2CC2)n2nc(-c3ccc(N4CCC(CC(N)=O)CC4)cc3F)cc2n1 [Compound 70, 2-[1-(4-{7-Cyclopropyl-5-[(1R)-1-methyl-1,2,3,4-tetrahydroisoquinoline-2-carbonyl]-pyrazolo[1,5-a]pyrimidin-2-yl}-3-fluorophenyl)piperidin-4-yl] acetamide]	0.104	28.2
C[C@@H]1c2ccccc2CCN1C(=O)c1cc(C2CC2)n2nc(-c3ccc(N4CCCC(CC(N)=O)C4)cc3F)cc2n1 (stereo partly drawn) [Compound 71, 2-[1-(4-{7-Cyclopropyl-5-[(1R)-1-methyl-1,2,3,4-tetrahydroisoquinoline-2-carbonyl]-pyrazolo[1,5-a]pyrimidin-2-yl}-3-fluorophenyl)piperidin-3-yl]acetamide]	0.105	29.8
CNC(=O)C1CCCN(c2ccc(-c3cc4nc(C(=O)N5CCc6ccccc6[C@H]5C)cc(C5CC5)n4n3)c(F)c2)C1 (stereo partly drawn) [Compound 73, 1-(4-{7-Cyclopropyl-5-[(1R)-1-methyl-1,2,3,4-tetrahydroisoquinoline-2-carbonyl]-pyrazolo[1,5-a]pyrimidin-2-yl}-3-fluorophenyl)-N-methylpiperidine-3-carboxamide]	0.101	> 100
C[C@@H]1c2ccccc2CCN1C(=O)c1cc(C2CC2)n2nc(-c3ccc(N4CC[C@@H](OC(N)=O)C4)cc3F)cc2n1 [Compound 77, (3R)-1-(4-{7-Cyclopropyl-5-[(1R)-1-methyl-1,2,3,4-tetrahydroisoquinoline-2-carbonyl]pyrazolo[1,5-a]pyrimidin-2-yl}-3-fluorophenyl)pyrrolidin-3-yl carbamate]	0.082	> 100
C[C@@H]1c2ccccc2CCN1C(=O)c1cc(C2CC2)n2nc(-c3ccc(N4CC[C@H](OC(N)=O)C4)cc3F)cc2n1 [Compound 78, (3S)-1-(4-{7-Cyclopropyl-5-[(1R)-1-methyl-1,2,3,4-tetrahydroisoquinoline-2-carbonyl]pyrazolo[1,5-a]pyrimidin-2-yl}-3-fluorophenyl)pyrrolidin-3-yl carbamate]	0.055	47.3
C[C@@H]1c2ccccc2CCN1C(=O)c1cc(C2CC2)n2nc(-c3ccc(N4CC[C@@H](OC(N)=O)C4)nc3F)cc2n1 [Compound 85, (3R)-1-(5-{7-Cyclopropyl-5-[(1R)-1-methyl-1,2,3,4-tetrahydroisoquinoline-2-carbonyl]-pyrazolo[1,5-a]pyrimidin-2-yl}-6-fluoropyridin-2-yl)pyrrolidin-3-yl carbamate]	0.152	> 100
COc1cc(N2CC[C@H](C(N)=O)C2)nc(F)c1-c1cc2nc(C(=O)N3CCc4ccccc4[C@H]3C)cc(C3CC3)n2n1 [Compound 86, (3S)-1-(5-{7-Cyclopropyl-5-[(1R)-1-methyl-1,2,3,4-tetrahydroisoquinoline-2-carbonyl]-pyrazolo[1,5-a]pyrimidin-2-yl}-6-fluoro-4-methoxypyridin-2-yl)pyrrolidine-3-carboxamide]	0.161	49.5
C[C@@H]1c2ccccc2CCN1C(=O)c1cc(C2CC2)n2nc(-c3ncc(N4CC[C@H](C(N)=O)C4)nc3F)cc2n1 [Compound 88, (3S)-1-(5-{7-Cyclopropyl-5-[(1R)-1-methyl-1,2,3,4-tetrahydroisoquinoline-2-carbonyl]-pyrazolo[1,5-a]pyrimidin-2-yl}-6-fluoropyrazin-2-yl)pyrrolidine-3-carboxamide]	0.017	47.6
